Reference: patent US11147272B2, “Pyridone compounds and agricultural and horticultural fungicides comprising the same as active ingredients” (MITSUI CHEMICALS AGRO, INC., priority 2017, dated 2021)

Legend:
[1] = system: Alternaia brassicicola; assay: Test Example C: Alternaria sooty spot on cabbage; assay type: in vivo; details: for Test C control value class / pest or weed control at 250 µg/mL: class of control value; for pest or weed control at 250 µg/mL: Brassica oleracea, topical, read-out: Test C control value class
Description: Seeds of a test plant (cabbage variety: Shikidori) were planted and cultivated until the cotyledons extended.
<Control Value> Control value=100{1−(n/3)}

[2] = system: Botrytis cinerea; assay: Test Example B: Gray mold on tomato; details: for Test B control value class: class of control value; for pest or weed control at 250 µg/mL: Botrytis cinerea, in Solanum lycopersicum, topical, read-out: Test B control value class
[3] = system: Phytophthora infestans; assay: whole plant or invertebrate; assay type: in vivo; details: for Test F control value class: class of control value; for pest or weed control at 250 µg/mL: Phytophthora infestans, in Solanum lycopersicum, topical, read-out: Test F control value class
[4] = system: Puccinia recondita; assay: Test Example E: Brown rust on wheat; assay type: in vivo; details: for Test E control value class / pest or weed control at 250 µg/mL: class of control value; for pest or weed control at 250 µg/mL: Puccinia recondita, topical, read-out: Test E control value class
[5] = system: Blumeria graminis f. sp. hordei; assay: Test Example D: Powdery mildew on barley; details: for Test D control value class: class of control value; for pest or weed control at 250 µg/mL: Blumeria graminis, in Hordeum vulgare, topical, read-out: Test D control value class
[6] = system: Plasmopara viticola; assay: Test Example G: Downy mildew on vine; details: for Test G control value class: Downy mildew on vine (Neomuscat), 2.5 ml/pot, assessed 7 to 10 days after inoculation; for Test G control value: 7 to 10 days after inoculation; for pest or weed control at 250 ppm: Plasmopara viticola, topical, read-out: Test G control value class
[7] = system: Colletotrichum orbiculare; assay: Test Example H: Anthracnose on cucumber; details: for Test H control value class: Anthracnose on cucumber (Sagami Hanjiro), 2.5 ml/pot, assessed 6 to 10 days after inoculation; for Test H control value: 6 to 10 days after inoculation; for pest or weed control at 250 ppm: Colletotrichum orbiculare, in Cucumis sativus, topical, read-out: Test H control value class
[8] = system: Magnaporthe grisea; assay: whole plant or invertebrate; assay type: in vivo; details: for Test A control value class: class of control value; for pest or weed control at 250 µg/mL: Pyricularia oryzae, in Oryza sativa, read-out: Test A control value class
[9] = Alternaria sooty spot on cabbage
[10] = 250 ppm drug solution sprayed on test plant
[11] = 250 ppm drug solution sprayed (2.5 ml/pot), grape Neomuscat
[12] = 250 ppm drug solution sprayed (2.5 ml/pot), cucumber Sagami Hanjiro
[13] = Alternaria sooty spot on cabbage, control value class
[14] = Gray mold on tomato, control value class
[15] = Late blight on tomato, control value class
[16] = Brown rust on wheat, control value class
[17] = Powdery mildew on barley, control value class
[18] = Downy mildew on vine, 250 ppm spray
[19] = Anthracnose on cucumber, 250 ppm spray
[20] = Blast on rice, control value class

SMILES | Test C control value [1, 10] | Test B control value [2, 10] | Test F control value [3, 10] | Test E control value [4, 10] | Test D control value [5, 10] | Test G control value [6, 11] | Test H control value [7, 12] | Test A control value [8, 10] | Test C control value [1, 13] | Test B control value [2, 14] | Test F control value [3, 15] | Test E control value [4, 16] | Test D control value [5, 17] | Test G control value [6, 18] | Test H control value [7, 19] | Test A control value [8, 20] | further results
CCn1c(-c2ccc(Br)cc2)c(CC(C)C)cc(Cl)c1=O [compound 177] | – | – | – | – | – | – | – | – | – | – | – | – | – | – | – | – | Test C control value class [1, 9]: H (more than 50% control value); Test B control value class ([2]; Gray mold on tomato): H (more than 50% control value); Test F control value class ([3]; Late blight on tomato): L (50% or less control value); Test E control value class ([4]; Brown rust on wheat): H (more than 50% control value); Test D control value class ([5]; Powdery mildew on barley): L (50% or less control value); Test G control value class ([6]; 250 ppm spray): L (50% or less control value); Test H control value class ([7]; 250 ppm spray): L (50% or less control value); Test A control value class ([8]; Blast on rice): L (50% or less control value)
CCn1c(-c2c(F)cc(OC)cc2F)c(C(C)(O)CC)cc(Br)c1=O (centres unmarked) [compound 500] | H (more than 50% control value) | H (more than 50% control value) | L (50% or less control value) | H (more than 50% control value) | L (50% or less control value) | H (more than 50% control value) | H (more than 50% control value) | H (more than 50% control value) | – | – | – | – | – | – | – | – | –
CCC(OC)c1cc(Br)c(=O)n(CC)c1-c1c(F)cc(OC)cc1F (centres unmarked) [compound 507] | H (more than 50% control value) | H (more than 50% control value) | L (50% or less control value) | H (more than 50% control value) | H (more than 50% control value) | H (more than 50% control value) | H (more than 50% control value) | H (more than 50% control value) | – | – | – | – | – | – | – | – | –
CCn1c(-c2c(F)cc(OCCOC)cc2F)c(C(C)(C)C)cc(Cl)c1=O [compound 83] | – | – | – | – | – | – | – | – | – | – | – | – | – | – | – | – | Test C control value class [1, 9]: H (more than 50% control value); Test B control value class ([2]; Gray mold on tomato): H (more than 50% control value); Test F control value class ([3]; Late blight on tomato): L (50% or less control value); Test E control value class ([4]; Brown rust on wheat): H (more than 50% control value); Test D control value class ([5]; Powdery mildew on barley): L (50% or less control value); Test G control value class ([6]; 250 ppm spray): H (more than 50% control value); Test H control value class ([7]; 250 ppm spray): H (more than 50% control value); Test A control value class ([8]; Blast on rice): H (more than 50% control value)
CCC(OC)c1cc(Cl)c(=O)n(CC)c1-c1c(F)cccc1F (centres unmarked) [Compound No. 25, 3-chloro-6-(2,6-difluorophenyl)-1-ethyl-5-(1-methoxypropyl)pyridin-2(1H)-one] | – | – | – | – | – | – | – | – | – | – | – | – | – | – | – | – | pest or weed control at 250 µg/mL [1, 9]: > 50%; pest or weed control at 250 µg/mL [2]: > 50%; pest or weed control at 250 µg/mL [3]: < 50%; pest or weed control at 250 µg/mL ([4]; Brown rust on wheat): > 50%; pest or weed control at 250 µg/mL [5]: > 50%; pest or weed control at 250 ppm [6]: > 50%; pest or weed control at 250 ppm [7]: > 50%; pest or weed control at 250 µg/mL [8]: > 50%
CC(C)CC1=C(c2c(F)cc(F)cc2F)N(CC(F)F)C(=O)CC1 [compound 296] | – | – | – | – | – | – | – | – | H (more than 50% control value) | L (50% or less control value) | L (50% or less control value) | H (more than 50% control value) | L (50% or less control value) | L (50% or less control value) | L (50% or less control value) | L (50% or less control value) | –
CCn1c(-c2c(F)cccc2F)c(C(C)(O)C(C)C)ccc1=O (centres unmarked) [compound 521] | H (more than 50% control value) | H (more than 50% control value) | L (50% or less control value) | H (more than 50% control value) | H (more than 50% control value) | H (more than 50% control value) | L (50% or less control value) | L (50% or less control value) | – | – | – | – | – | – | – | – | –
CCn1c(-c2c(F)cc(OC)cc2F)c(C(C)(CC)OC)cc(Br)c1=O (centres unmarked) [compound 486] | H (more than 50% control value) | H (more than 50% control value) | L (50% or less control value) | H (more than 50% control value) | H (more than 50% control value) | L (50% or less control value) | H (more than 50% control value) | H (more than 50% control value) | – | – | – | – | – | – | – | – | –
CCn1c(-c2c(F)cc(F)cc2F)c(COc2ccccc2)cc(Cl)c1=O [compound 308] | – | – | – | – | – | – | – | – | H (more than 50% control value) | L (50% or less control value) | L (50% or less control value) | L (50% or less control value) | L (50% or less control value) | L (50% or less control value) | L (50% or less control value) | H (more than 50% control value) | –
CCCc1ccc(=O)n(CC(F)F)c1-c1c(F)cc(F)cc1F [compound 470] | H (more than 50% control value) | L (50% or less control value) | L (50% or less control value) | L (50% or less control value) | L (50% or less control value) | L (50% or less control value) | H (more than 50% control value) | L (50% or less control value) | – | – | – | – | – | – | – | – | –
CCCc1cc(Cl)c(=O)n(CC)c1-c1ccc(F)cc1Br [compound 368] | – | – | – | – | – | – | – | – | H (more than 50% control value) | H (more than 50% control value) | H (more than 50% control value) | H (more than 50% control value) | H (more than 50% control value) | H (more than 50% control value) | H (more than 50% control value) | H (more than 50% control value) | –
CCn1c(-c2c(F)cc(F)cc2F)c(C(C)C)cc(Cl)c1=O [Compound No. 8, 3-chloro-1-ethyl-5-isopropyl-6-(2,4,6-trifluorophenyl)pyridin-2(1H)-one] | – | – | – | – | – | – | – | – | – | – | – | – | – | – | – | – | pest or weed control at 250 µg/mL [1, 9]: > 50%; pest or weed control at 250 µg/mL [2]: > 50%; pest or weed control at 250 µg/mL [3]: < 50%; pest or weed control at 250 µg/mL ([4]; Brown rust on wheat): > 50%; pest or weed control at 250 µg/mL [5]: > 50%; pest or weed control at 250 ppm [6]: < 50%; pest or weed control at 250 ppm [7]: > 50%; pest or weed control at 250 µg/mL [8]: > 50%
CCCc1cc(Br)c(=O)n(CC)c1-c1ccc(F)cc1Cl [compound 192] | – | – | – | – | – | – | – | – | H (more than 50% control value) | H (more than 50% control value) | L (50% or less control value) | H (more than 50% control value) | H (more than 50% control value) | L (50% or less control value) | H (more than 50% control value) | H (more than 50% control value) | –
